Experimental data from US20230391748A1, “BICYCLIC INHIBITORS OF IRAK” (priority 2022, published 2023).

What was measured:
[1] = biological target: IRAK4 (Homo sapiens (Human), UniProt Q9NWZ3); assay: IRAK4 ADP-Glo Assay; format: biochemical; settings: MBP substrate
In short: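 Human IRAK4 kinase reaction with MBP substrate plus ATP in Tris-HCl/MgCl2/BSA/DTT buffer, pH 7.4, run 60 min at room temperature or 30 min at 30 °C. ADP formed was measured by ADP-Glo luminescence after ATP depletion (40 min) and detection reagent (30 min).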

[2] = tested on: IL23p19 in THP-1 Cells; assay: LPS Induced IL23p19 in THP-1 Cells (with IFNγ Primed) Assay; format: cell-based; settings: Homo sapiens, THP-1, 18 h, read-out: IL23 (THP, LPS) (IC50, μM)
In short: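 THP-1 cells (50K/well) primed with IFNγ (50 ng/mL) about 18 h, then given compound and stimulated with LPS for 18 h at 37 °C. Secreted IL-23p19 measured by sandwich ELISA with chemiluminescent read-out, giving EC50. Cell Titer Glo used on the remaining cells for toxicity.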

[3] = tested on: TNF-α in human PBMCs; assay: R848-induced TNF-α in human PBMCs Assay; format: cell-based; settings: Homo sapiens, PBMC, 4 h, read-out: TNFα (PBMC, R848) (IC50, μM)
In short: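 Human PBMCs at 200K/well were pretreated with compound, then R848-stimulated for 4 h at 37 °C, 5% CO2. Supernatant TNF-α quantified by chemiluminescent ELISA; EC50 from curve fitting.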

[4] = tested on: TNF-α in Human Primary Monocyte-Derived Dendritic Cells; assay: Gardiquimod-Induced TNF-α in Human Primary Monocyte-Derived Dendritic Cells; format: cell-based; settings: Dendritic cell, IFNγ-primed monocyte-derived dendritic cells, 4 μg/ml Gardiquimod, 6 hours, TNF-α ELISA, read-out: TNFα (DC, GARD) (IC50)
In short: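 Monocytes differentiated 7 days with GM-CSF and IL-4, then primed 24 h with 50 ng/ml IFN-γ. Compound added 1 h before 6 h stimulation with 4 μg/ml Gardiquimod, 0.5% DMSO final. Supernatant TNF-α measured by chemiluminescent ELISA; EC50 from curve fitting.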

IRAK4, sequence (Q9NWZ3 whole entry): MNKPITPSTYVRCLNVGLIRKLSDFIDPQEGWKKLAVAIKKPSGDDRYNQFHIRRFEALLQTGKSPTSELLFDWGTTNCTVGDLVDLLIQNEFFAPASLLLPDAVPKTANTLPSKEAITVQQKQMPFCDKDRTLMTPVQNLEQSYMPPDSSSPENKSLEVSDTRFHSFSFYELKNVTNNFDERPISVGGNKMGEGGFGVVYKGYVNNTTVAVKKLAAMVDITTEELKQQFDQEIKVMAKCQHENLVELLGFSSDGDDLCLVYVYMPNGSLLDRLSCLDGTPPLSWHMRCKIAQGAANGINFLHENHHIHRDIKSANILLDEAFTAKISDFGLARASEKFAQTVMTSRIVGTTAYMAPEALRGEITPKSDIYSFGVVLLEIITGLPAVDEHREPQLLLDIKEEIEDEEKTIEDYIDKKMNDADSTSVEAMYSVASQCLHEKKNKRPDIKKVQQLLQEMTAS

SMILES | IC50 [1] | IC50 [2] | IC50 [3] | IC50 [4]
CC(C)Oc1cc2c(O[C@@H]3CCCN(C(=O)CC#N)C3)ncc(-c3cnn(C4CCN(C(=O)OC(C)(C)C)CC4)c3)c2cc1C(N)=O [Compound I-121, tert-butyl (R)-4-(4-(6-carbamoyl-1-((1-(2-cyanoacetyl)piperidin-3-yl)oxy)-7-isopropoxyisoquinolin-4-yl)-1H-pyrazol-1-yl)piperidine-1-carboxylate] | 12.9 nM | 1.9 µM | 1.76 µM | 1020 nM
CC(C)Oc1cc2c(O[C@@H]3CCCN(C(=O)CC#N)C3)ncc(-c3cnn(C4CCN(C)CC4)c3)c2cc1C(N)=O [Compound I-123, (R)-1-((1-(2-cyanoacetyl)piperidin-3-yl)oxy)-7-isopropoxy-4-(1-(1-methylpiperidin-4-yl)-1H-pyrazol-4-yl)isoquinoline-6-carboxamide] | 19.2 nM | 4.9 µM | 0.145 µM | 217 nM
CCO[C@H]1CC[C@H](n2cc(-c3cnc(O[C@@H]4CCCN(C(=O)CC#N)C4)c4cc(OC(C)C)c(C(N)=O)cc34)cn2)CC1 [Compound I-124, 1-(((R)-1-(2-cyanoacetyl)piperidin-3-yl)oxy)-4-(1-(trans-4-ethoxycyclohexyl)-1H-pyrazol-4-yl)-7-isopropoxyisoquinoline-6-carboxamide] | 6.8 nM | 0.609 µM | 12.2 µM | 352 nM
